Key:
COLO205 cells = experiment: LC-MS lipid profiling of treated cells; type: cell-based, human; settings: 1 μM, 4 h
Description: ABHD16A^+/+, ABHD16A^+/+, and ABHD16A^−/− littermates of 10 weeks age were anaesthetized by isoflurane and killed by decapitation. The tissues (brains were sliced laterally into two hemispheres; entire spinal cord) were harvested, weighed, and immediately submerged in liquid N2. Tissues (one half brain or entire spinal cord) were then Dounce-homogenized in 8 mL of 2:1:1 (vol/vol/vol) CHCl3: MeOH: PBS containing the internal standard mix (1 nmol 17:1 FFA, and 100 pmol each of 17:1 lyso-PS, 17:0-20:4 PS, 17:1 lyso-PC, 17:0-20:4 PC, 17:0-20:4 PE and 50 pmol of 2-AG-d5). Homogenates were transferred to a glass vial and centrifuged at 2800×g for 10 minutes to separate the two phases. The organic phase (bottom) was removed, 200 μL of formic acid was added to acidify the aqueous homogenate (to enhance extraction of phospholipids), and CHCl3 was added to make up 8 mL volume. The mixture was vortexed, and separated using centrifugation described above. Both the organic extracts were pooled, and dried under a stream of N2. The metabolomes were then re-solubilized in 120 μL of 2:1 (vol/vol) CHCl3: MeOH, and 10 μL were used for the targeted LC-MS analysis. For cellular and secreted metabolomics studies, serum free phenol red free RPMI 1640 media was used to prevent any promiscuous contributions from serum lipids. For the cellular metabolomics studies, 3×10^6 cells were used for all cancer cell lines (COLO205, K562, and MCF7) and lymphoblast cell lines (LCLs), and 2×10^6 cells were used for thioglycollate-elicited peritoneal macrophages. […]
All the metabolites analyzed in this study were quantified using the multiple reaction monitoring (MRM) methods the targeted LC/MS analysis was done using an Agilent Technologies 6460 Triple Quad LC/M with an Agilent Technologies 1290 Infinity series quaternary pump. All data was collected using the LC/MS Data Acquisition mode of the Mass Hunter Workstation Software version B.05.00 build 5.0.5027.0 SP, and analyzed using the Quantitative Analysis mode of the same software. […]

ABHD16A = target: T1, ABHD16A (Homo sapiens, UniProt O95870); experiment: ABPP-SILAC, COLO205 cells treated in situ; type: cell-based; parameters: All ABPP-SILAC experiments were performed using the human COLO205 colon cancer cell line; endogenous in cells; host or cells: COLO205
T1 sequence (O95870 1-558): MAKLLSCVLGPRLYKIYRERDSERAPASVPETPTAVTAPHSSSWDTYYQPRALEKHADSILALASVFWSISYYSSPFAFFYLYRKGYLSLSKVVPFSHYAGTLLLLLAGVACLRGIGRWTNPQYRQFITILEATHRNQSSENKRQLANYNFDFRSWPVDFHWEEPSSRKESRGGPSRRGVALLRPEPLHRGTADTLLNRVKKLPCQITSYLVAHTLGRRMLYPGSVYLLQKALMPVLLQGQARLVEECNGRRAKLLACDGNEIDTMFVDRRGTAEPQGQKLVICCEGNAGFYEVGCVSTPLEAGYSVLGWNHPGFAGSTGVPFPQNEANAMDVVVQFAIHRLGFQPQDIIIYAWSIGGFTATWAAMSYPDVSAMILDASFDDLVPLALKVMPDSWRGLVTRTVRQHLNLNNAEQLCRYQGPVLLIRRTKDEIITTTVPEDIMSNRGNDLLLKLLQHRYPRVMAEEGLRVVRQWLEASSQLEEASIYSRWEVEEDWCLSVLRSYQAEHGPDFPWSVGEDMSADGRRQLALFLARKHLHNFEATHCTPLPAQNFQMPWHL

CCCCCCCCCCCCCC1OC(=O)/C1=C\CCCCC(N)=O (centres unmarked) [KC01, (Z)-6-(2-oxo-4-tridecyloxetan-3-ylidene)hexanamide]
other lipids (PSs, PCs, PEs, lyso-PCs, lyso-PEs, MAGs) (COLO205 cells): No changes | secreted lyso-PSs (18:1 and 18:0) (COLO205 cells; serum-free media): decreased | cellular lyso-PSs (COLO205 cells; vs DMSO): significant reductions in all detected cellular lyso-PSs | light:heavy ratio (ABHD16A; 1 μM, 4 h): 0.02 | inhibition at 1 µM (ABHD16A; COLO 205, 4 h): 98%

Source: patent US20170313669A1, “LACTONE COMPOUNDS AND METHODS OF MAKING AND USING SAME” (THE SCRIPPS RESEARCH INSTITUTE, priority 2015, published 2017)
